One experiment deals with DPP4. Particulars: cited from earlier work; for IC50: read-out: IC50 (uM), peptides as DPP4 inhibitors, Supplementary Table S1.
Experiment [1] deals with T1, human dipeptidyl peptidase-4 (DPP4) (Homo sapiens, UniProt P27487).
T1 construct: purchased Sigma Aldrich
As to the kind of experiment: DPP4 inhibitor screening kit fluorescence assay (H-Gly-Pro-AMC cleavage). It counts as biochemical. Particulars: n = 3. As for the experimental part: Oxytocin peptide was purchased from the company Parfarm S.A (District Federal, Mexico), and human dipeptidyl peptidase-4 inhibitor screening kit, Black-well 96 well plate for fluorescence assays were purchased from Sigma Aldrich (St. Louis, MO, USA).
The experimental studies were carried out using the human DPP4 inhibitor screening kit to validate the computational results. Briefly, the pure protein DPP4 cleaves non-fluorescence substrate H-Gly-Pro-AMC and releases fluorescence product AMC whose fluorescence emissions, λex = 360 nm and λem = 460 nm on each well, were recorded in a kinetic mode for 30 min using microplate reader Thermo Scientific Varioskan Flash Multimode Reader by Thermo Scientific. The relative percent of inhibition was calculated using Equation (1), where df/dt denotes changes in fluorescence with time. The graphs were plotted for all experiments (n = 3) using Graph Pad software. All groups were compared with p < 0.05 as statistically significant. To obtain the p-value, an ordinary one-way ANOVA unpaired t-test was applied using Graph Pad software (San Diego, CA, USA). All the data in graphs are expressed as mean ± S.D:(1) % Relative inhibition=(df/dt)DPP4 enzyme−(df/dt)(DPP4−OXT peptide)/(df/dt)DPP4 enzyme×100

What is called inhibition is the change of the read-out against control, counted positive when it falls.

T1 sequence (P27487 whole entry): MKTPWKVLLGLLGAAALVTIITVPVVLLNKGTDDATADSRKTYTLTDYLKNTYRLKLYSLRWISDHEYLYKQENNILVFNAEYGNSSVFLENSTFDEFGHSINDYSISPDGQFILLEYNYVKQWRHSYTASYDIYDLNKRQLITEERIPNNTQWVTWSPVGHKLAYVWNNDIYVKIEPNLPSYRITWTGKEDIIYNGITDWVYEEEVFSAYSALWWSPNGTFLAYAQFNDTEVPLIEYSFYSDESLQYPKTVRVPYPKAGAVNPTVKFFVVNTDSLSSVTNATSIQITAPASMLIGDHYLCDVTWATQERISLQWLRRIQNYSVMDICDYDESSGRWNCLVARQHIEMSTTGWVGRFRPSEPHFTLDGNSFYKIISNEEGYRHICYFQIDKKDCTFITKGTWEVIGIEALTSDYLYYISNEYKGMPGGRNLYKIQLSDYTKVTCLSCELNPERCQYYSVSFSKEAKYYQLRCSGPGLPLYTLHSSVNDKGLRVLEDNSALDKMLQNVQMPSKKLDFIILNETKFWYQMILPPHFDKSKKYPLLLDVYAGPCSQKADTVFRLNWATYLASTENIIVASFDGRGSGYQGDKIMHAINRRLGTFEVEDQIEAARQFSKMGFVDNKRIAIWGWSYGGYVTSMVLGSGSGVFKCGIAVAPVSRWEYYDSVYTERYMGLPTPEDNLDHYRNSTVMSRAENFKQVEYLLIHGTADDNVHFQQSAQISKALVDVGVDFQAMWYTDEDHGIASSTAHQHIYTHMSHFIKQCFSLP

Consider GPAG, for which, in the experiment on DPP4, the IC50 is 41.1 µM.
Consider IPIQY, for which, in the experiment with DPP4, the IC50 is 26.7 µM.
Regarding Diprotin A, in the experiment with DPP4 (peptide isolated from culture of Bacillus cereus), the “IC50 of DPP4” value is 2900 µg/mL. Further, the IC50 in the experiment with DPP4 is 2.9 µM.
On to YPYY, for which, in the experiment on DPP4, the IC50 is 208 µM.
As to LPLPL, in the experiment on DPP4, the IC50 was 358 µM.
In the case of IPAVF, the IC50 in the experiment on DPP4 was 44.7 µM.
Take FPGPIPD: the IC50 with DPP4 is 260 µM.
Take GPGA: in the experiment with DPP4, the IC50 was 41.9 µM.
With LPQNIPP, the IC50 in the experiment on DPP4 is 160 µM.
Turning to `CC[C@H](C)[C@@H]1NC(=O)[C@H](Cc2ccc(O)cc2)NC(=O)[C@@H](N)CSSC[C@@H](C(=O)N2CCC[C@H]2C(=O)N[C@@H](CC(C)C)C(=O)NCC(N)=O)NC(=O)[C@H](CC(N)=O)NC(=O)[C@H](CCC(N)=O)NC1=O` [oxytocin], the inhibition at 0.002 µM in experiment [1] (2 nM oxytocin, mean, read-out: relative percent inhibition of DPP4) amounted to 6.3%. Also, the inhibition at 0.019 µM in experiment [1] (19 nM oxytocin, mean, read-out: relative percent inhibition of DPP4) is 44.5%. For the same molecule, the inhibition at 0.28037 µM in experiment [1] (280.37 nM oxytocin, mean, read-out: relative percent inhibition of DPP4) turned out to be 61.6%. Also, in experiment [1] (850.47 nM oxytocin, mean, read-out: relative percent inhibition of DPP4), the inhibition at 0.85047 µM worked out at 75.4%. The inhibition at 1.6 µM in experiment [1] (1600 nM oxytocin, mean, read-out: relative percent inhibition of DPP4) turned out to be 81.2%. Also, the IC50 in experiment [1] (fluorescence assay, substrate H-Gly-Pro-AMC, λex 360 nm / λem 460 nm, kinetic mode 30 min, dose-response curve in Figure S1, read-out: inhibitory concentration IC50 of DPP4) came out at 0.111 µM.
Take LPYPY: the IC50 in the experiment on DPP4 is 90.8 µM.
Consider IPIY, for which the IC50 with DPP4 was 35.2 µM.
Regarding PGPIHDS, in the experiment with DPP4, the IC50 is 1000 µM.

The values are drawn from article PMC6864445, “New Molecular Insights into the Inhibition of Dipeptidyl Peptidase-4 by Natural Cyclic Peptide Oxytocin” (Molecules, 2019).
